{
  "source": "patent US10609926B2",
  "about": "“Synergistic herbicidal composition” (JIANGSU ROTAM CHEMISTRY CO., LTD, priority 2016, dated 2020)",
  "system": "gramineous weeds, broadleaf weeds and sedge weeds",
  "experiment": "Post-emergence weed control efficacy test (potted plants, stem and leaf treatment; Colby evaluation)",
  "assay_type": "in vivo",
  "excerpt": "The desired efficacy of the combination of three active compounds can be calculated through “Colby formula” as follows (S. R. Colby, “Calculating Synergistic and Antagonistic Responses of Herbicide Combinations, Weeds 1967, 15, 20-22): if\nE0 is the anticipated activity of active compounds A, B and C when used in an amount of m, n, h g/ha or concentrate of m, n, h ppm, E0=A×B×C/(100^(N-1))\nIf the observed actual activity E is greater than the anticipated activity (E0), then the composition has synergistic effect.\nIf the observed actual efficiency of weed control (E) through the biology test is greater than the anticipated value (E0) as calculated via Colby's equation, then it represents that the efficacy of herbicidal composition is greater than the sum of efficacy of each component, which means the composition has synergistic effect.\nUse stem and leaf treatment for potted grown plant(NY/T 1155.4-2006): fill a plastic pot (6 cm height, 9 cm diameter) with a quantity of soil and sow 15 to 20 seeds of monocotyledonous weeds and dicotyledonous weeds in the plastic pot, cover it with 0.5 to 1 cm thick of fine soil and then put it in greenhouse for cultivation. When weeds grow to the 2 to 4 leave stage, conduct the stem and leaf spray treatment with 1 mL herbicidal solution on each pot and repeat four times for each treatment and leave some pots untreated as control group. Keep the treated pots in a greenhouse for cultivation and observe the growing status of target weeds periodically. Conduct the visual test on the target weeds regarding the damage symptoms and growth inhibition effect after 21 days. Weigh up the fresh weight above the ground or plant fresh weight and evaluate the toxicity of the herbicidal formulation on target weeds based on the fresh weight inhibition rate of the target.\nPrepare the following formulations according to specific weight percentages: 1. Pyroxasulfone; 2. Topramezone; 3 Atrazine; 4. Pyroxasulfone+Topramezone; 5. Pyroxasulfone+Atrazine; 6. Topramezone+Atrazine; 7. Pyroxasulfone+Topramezone+Atrazine. After that, dilute above formulations with water to obtain diluted formulations.\nConduct visual assessment the damage symptom and growth inhibition status of target weeds after 21 days. Weigh up the fresh weight above the ground and calculate the inhibition rate of fresh weight (%).\nAnticipated effects of the special combined three active components can be calculated through so called “Colby formula”. If the actual efficiency of weed control observed during the biology test exceeds the anticipated value […] calculated by Colby's formula, then it represents that the efficacy of herbicidal composition is greater than the sum of efficacy of each component, which means the composition has synergistic effect.\nThe synergistic herbicidal composition of present invention has conducted test on the following important harmful plants (gramineous weeds, broadleaf weeds, sedge weeds) with wide herbicidal spectrum: Echinochloa oryzicola, Digitaria spp., Stellaria media, Amaranthus retroflexus, Fallopia (ex Polygonum) Convolvulus, Abuthilon theophrasti, Sagittariatrifolia, Oriental Waterplantain Rhizome, Herb of Pygmy Arrowhead, Monochoria korsakowii, Lindernia procumbens, Solanum nigrum L., Scirpus juncoides Roxb, Cyperus difformis L., Chenopodium alum L., Avena fatua L. and Galium aparine L. var. tenerum Gren. et (Godr.) Rebb.",
  "data": [
    {"molecule": "Cc1c(C(=O)c2cnn(C)c2O)ccc(S(C)(=O)=O)c1C1=NOCC1", "note": "[Topramezone, [3-(4,5-dihydro-3-isoxazolyl)-2-methyl-4-(methylsulfonyl)phenyl](5-hydroxy-1-methyl-1H-pyrazol-4-yl)methanone]", "values": [
      {"measurement": "Actual survival rate", "setting": "application rate 1 g/ha", "value": 87.8, "unit": "%"},
      {"measurement": "Actual survival rate", "setting": "application rate 25 g/ha", "value": 24.5, "unit": "%"},
      {"measurement": "Actual survival rate", "setting": "application rate 50 g/ha", "value": 12.8, "unit": "%"}
    ]},
    {"molecule": "CCNc1nc(Cl)nc(NC(C)C)n1", "note": "[Atrazine, 2-chloro-4-ethylamino-6-isopropylamino-1,3,5-triazine]", "values": [
      {"measurement": "Actual survival rate", "setting": "application rate 1 g/ha", "value": 100, "unit": "%"},
      {"measurement": "Actual survival rate", "setting": "application rate 50 g/ha", "value": 100, "unit": "%"},
      {"measurement": "Actual survival rate", "setting": "application rate 100 g/ha", "value": 67, "unit": "%"}
    ]},
    {"molecule": "Cn1nc(C(F)(F)F)c(CS(=O)(=O)C2=NOC(C)(C)C2)c1OC(F)F", "note": "[Pyroxasulfone, 3-[5-(difluoromethoxy)-1-methyl-3-(trifluoromethyl)pyrazol-4-ylmethylsulfonyl]-4,5-dihydro-5,5-dimthyl-1,2-oxazole]", "values": [
      {"measurement": "Actual survival rate", "setting": "application rate 1 g/ha", "value": 89, "unit": "%"},
      {"measurement": "Actual survival rate", "setting": "application rate 5 g/ha", "value": 78, "unit": "%"},
      {"measurement": "Actual survival rate", "setting": "application rate 10 g/ha", "value": 60, "unit": "%"}
    ]}
  ]
}
